PMC3750051, “A New Class of Rhomboid Protease Inhibitors Discovered by Activity-Based Fluorescence Polarization” (PLoS ONE, 2013)

How the values were obtained:
[1] = target: T1, E. coli rhomboid GlpG (Escherichia coli, UniProt P09391); assay: biochemical
[2] = target: T2, bovine chymotrypsin (Bos taurus, UniProt P00766); design: method as in PMID 23359682; conditions: cited from earlier work
[3] = target: T3, GlpG (Escherichia coli, UniProt P09391); assay: Gel-based competitive activity-based probe profiling (competitive ABPP); assay type: biochemical, E. coli; conditions: for blocking of EK2 labeling of GlpG (gel-based competitive ABPP): 100 µM compound, 45 nM GlpG, 1 µM probe EK2
T3 sequence (P09391 whole entry): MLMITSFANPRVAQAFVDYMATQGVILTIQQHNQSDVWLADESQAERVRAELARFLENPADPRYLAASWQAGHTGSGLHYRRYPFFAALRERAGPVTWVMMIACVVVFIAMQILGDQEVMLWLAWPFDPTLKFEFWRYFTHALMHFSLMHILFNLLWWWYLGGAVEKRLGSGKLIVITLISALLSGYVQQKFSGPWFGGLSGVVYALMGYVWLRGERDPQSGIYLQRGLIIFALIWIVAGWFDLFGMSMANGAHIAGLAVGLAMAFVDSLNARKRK
Procedure: For the competitive activity-based probe profiling (competitive ABPP) experiment 45 nM of rhomboid in 20 µl of 50 mM HEPES (pH 7.4) containing 10% glycerol and 0.0125% DDM were incubated for 30 min at 37°C shaking with 100 µM of the compound or an equal volume of DMSO. Then either probe EK2 or FP-R was added to a final concentration of 1 µM and incubated for further 30 min at 37°C shaking in the dark. The labeling reaction was stopped with 4× SDS-sample buffer and 10 µl of the reaction (15 ng protein per lane) was applied to a 15% SDS-polyacrylamide gel and run for 1 h 10 min at 200V. The gel was visualized on a fluorescence scanner (Typhoon, Trio +).

[4] = target: T3, GlpG; assay: Substrate cleavage of fluorescently labeled TatA (Providencia stuartii) by GlpG; assay type: biochemical, E. coli; conditions: 100 µM compound, 500 nM GlpG, 83 nM TAMRA-labeled TatA, overnight at 37°C
Procedure: The TatA protein from Providencia stuartii was used for generation of a fluorescence substrate. The substrate was constructed to include a His6-tag for purification as well as a LPRTG-motif for sortase-mediated protein labeling. It was expressed and purified as described above. For the labeling reaction, 33 µM of the unlabeled substrate, 50 µM sortase A from S. aureus and 500 µM of the label NH2-Ala-Ala-Ahx-Lys(TAMRA) were added together in labeling buffer (50 mM Tris, pH 7.5 containing 150 mM NaCl, 10 mM CaCl2 and 0.05% (w/v) DDM) and allowed to react o/n at 37°C in the dark. […] This allowed removal of sortase and unlabeled substrate by incubation of the labeling reaction with Ni-NTA agarose beads. The supernatant was applied to a ZEBA-spin desalting column (VWR; MW-cut-off 7 kDa) to remove excess label. 40 µL of a 500 nM rhomboid solution (in 50 mM HEPES (pH 7.4) containing 10% (v/v) glycerol and 0.0125% (w/v) DDM) were incubated for 30 min at 37°C shaking with 100 µM of the compounds or DMSO. Then fluorescently labeled rhomboid substrate TatA (Providencia stuartii) was added to a final concentration of 83 nM. The cleavage reaction was allowed to take place o/n at 37°C shaking in the dark and stopped by the addition of 4× SDS-sample buffer. 10 µl of each reaction (10 ng protein per lane) was applied to a 15% SDS-polyacrylamide gel and run for 1 h 10 min at 200V. The gel was visualized on a fluorescence scanner (Typhoon, Trio +).

[5] = target: T1, E. coli rhomboid GlpG; assay type: biochemical; conditions: 100 µM compound; for FluoPol signal, % of wild-type signal: 30 min preincubation, 75 nM FP-R, polarization at 4 h, GlpG WT = 100%, duplicate screens
[6] = target: GlpG from E. coli (Escherichia coli, UniProt P09391); assay type: biochemical; conditions: 1 µM probe, 45 nM GlpG WT or inactive S201A mutant, 30 min
Sequence of GlpG from E. coli (P09391 whole entry): as above

[7] = target: T3, GlpG; assay type: biochemical, E. coli; conditions: 36 nM GlpG WT or S201A mutant, 100 µM compound, click reaction with TAMRA-azide
[8] = target: T2, bovine chymotrypsin; assay: IC50 against chymotrypsin; assay type: biochemical; conditions: for IC50: bovine chymotrypsin, read-out: apparent IC50 against chymotrypsin; for potency against GlpG compared with trypsin and chymotrypsin: comparison of apparent IC50 values
[9] = target: T4, bovine trypsin (Bos taurus, UniProt P00760); assay: IC50 against trypsin; assay type: biochemical; conditions: read-out: apparent IC50 against trypsin
T4 sequence (P00760 24-246): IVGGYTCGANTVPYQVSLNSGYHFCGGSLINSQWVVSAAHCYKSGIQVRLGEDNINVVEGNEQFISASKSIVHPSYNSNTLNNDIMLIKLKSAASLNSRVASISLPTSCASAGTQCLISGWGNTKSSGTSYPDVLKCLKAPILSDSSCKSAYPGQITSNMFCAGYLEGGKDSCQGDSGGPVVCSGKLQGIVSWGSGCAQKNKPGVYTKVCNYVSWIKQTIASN

T1 sequence (P09391 whole entry): as the sequence (P09391 whole entry) above

Row | Compound | IC50 [1] | inhibition of substrate cleavage [4] | blocking of EK2 labeling of GlpG (gel-based competitive ABPP) [3] | further results
1 | Nc1ccc2c(Cl)c(OCCc3ccccc3)oc(=O)c2c1 [S016, reference compound] | 1.1 ± 0.56 µM |  |  | potency against chymotrypsin compared with GlpG [2]: more potent against chymotrypsin than against GlpG; prevention of probe labeling of GlpG WT by pre-inhibition ([3]; 100 µM inhibitor, 30 min, 1 µM probe EK2 or FP-R): Labeling was also prevented
2 | Nc1ccc2c(Cl)c(OCCCCCc3ccccc3)oc(=O)c2c1 [Compound 2] | 0.75 ± 0.21 µM | able to block | able to block | 
3 | Nc1ccc2c(Cl)c(OCCc3cn(Cc4ccccc4)nn3)oc(=O)c2c1 [Compound 27] | 3.1 ± 0.91 µM | able to block | able to block | 
4 | O=c1oc(OCCBr)c(Cl)c2ccc([N+](=O)[O-])cc12 [Compound 12] | 8.4 ± 1.7 µM | able to block | able to block | FluoPol signal, % of wild-type signal [5]: slightly negative
5 | CCCCOc1oc(=O)c2cc(N)ccc2c1Cl [Compound 3] | 0.4 ± 0.1 µM | able to block | able to block | FluoPol signal, % of wild-type signal [5]: slightly negative
6 | CN(C)c1ccc2c(-c3ccc(C(=O)NCCCn4cc(CCOc5oc(=O)c6cc(N)ccc6c5Cl)nn4)cc3C(=O)[O-])c3ccc(=[N+](C)C)cc-3oc2c1 [EK2] |  |  |  | activity-based labeling of GlpG by the probe [6]: labeled wild-type (WT) GlpG from E. coli, but not the inactive S201A mutant
7 | O=c1oc(OCCCCCc2ccccc2)c(Cl)c2ccc([N+](=O)[O-])cc12 [Compound 10] | 5.2 ± 0.8 µM | able to block | able to block | FluoPol signal, % of wild-type signal [5]: slightly negative
8 | vibralactone [reference compound] |  |  |  | activity against rhomboid ([5]; FluoPol ABPP screen): inactive
9 | C#CCCC[C@@H]1OC(=O)[C@H]1CCCC [Compound 31] | 26 ± 5.8 µM | able to block | able to block | tandem activity-based labeling of GlpG (fluorescent gel band) [7]: Wild-type GlpG, but not the inactive S201A mutant was visualized; IC50 [8]: > 50 µM; potency against GlpG compared with trypsin and chymotrypsin [8]: higher potency against GlpG than against trypsin and chymotrypsin; IC50 [9]: > 150 µM
10 | C#CCCCC(=O)OCC1=CC2(CC=C(C)C)C(=O)OC2C1 (stereo not shown) [Compound 43] | 44 ± 10 µM | able to block | able to block | tandem activity-based labeling of GlpG (fluorescent gel band) [7]: Wild-type GlpG, but not the inactive S201A mutant was visualized; IC50 [8]: > 50 µM; potency against GlpG compared with trypsin and chymotrypsin [8]: higher potency against GlpG than against trypsin and chymotrypsin; IC50 [9]: > 150 µM
11 | CCCCOc1oc(=O)c2cc([N+](=O)[O-])ccc2c1Cl [Compound 11] | 5.5 ± 0.55 µM | able to block | able to block | 
